Data taken from ChEMBL document CHEMBL2412971, “Selective orexin receptor antagonists” (Bioorg Med Chem Lett, 2013).

Assays:
[1] = biological target: T1, Orexin/Hypocretin receptor type 1 (Homo sapiens, UniProt O43613); assay: (§1) Binding affinity to orexin receptor 1 (unknown origin)
T1 sequence (O43613 whole entry): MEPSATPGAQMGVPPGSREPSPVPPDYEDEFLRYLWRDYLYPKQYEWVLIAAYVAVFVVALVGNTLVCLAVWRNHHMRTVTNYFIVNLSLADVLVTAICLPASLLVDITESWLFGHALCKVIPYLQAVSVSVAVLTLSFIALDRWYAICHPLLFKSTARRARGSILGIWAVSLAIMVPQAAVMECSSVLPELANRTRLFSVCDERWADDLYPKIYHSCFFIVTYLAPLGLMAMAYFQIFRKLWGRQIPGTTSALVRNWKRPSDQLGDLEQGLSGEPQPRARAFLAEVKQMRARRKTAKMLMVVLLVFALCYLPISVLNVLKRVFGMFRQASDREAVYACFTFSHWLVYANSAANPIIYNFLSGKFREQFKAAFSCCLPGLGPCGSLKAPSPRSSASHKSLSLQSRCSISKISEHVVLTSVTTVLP

Orexin receptor type 2 [2] = biological target: T2, Orexin receptor type 2 (Homo sapiens, UniProt O43614); assay: (§2) Binding affinity to orexin receptor 2 (unknown origin)
T2 sequence (O43614 whole entry): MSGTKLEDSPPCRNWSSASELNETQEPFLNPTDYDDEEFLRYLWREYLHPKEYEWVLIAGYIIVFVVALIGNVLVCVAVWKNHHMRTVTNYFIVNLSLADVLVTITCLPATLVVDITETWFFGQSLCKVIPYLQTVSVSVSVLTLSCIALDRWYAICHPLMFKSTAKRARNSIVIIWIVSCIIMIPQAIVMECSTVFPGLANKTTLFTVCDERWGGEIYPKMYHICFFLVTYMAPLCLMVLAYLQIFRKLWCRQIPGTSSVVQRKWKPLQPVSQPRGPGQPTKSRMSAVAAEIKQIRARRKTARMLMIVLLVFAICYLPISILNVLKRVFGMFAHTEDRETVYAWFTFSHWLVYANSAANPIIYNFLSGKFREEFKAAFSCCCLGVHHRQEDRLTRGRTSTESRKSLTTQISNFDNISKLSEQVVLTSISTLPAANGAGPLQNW

[3] = biological target: T3, Orexin/Hypocretin receptor type 1 (Homo sapiens) (UniProt O43613); assay: as §1
T3 sequence (whole entry): T1 sequence (O43613 whole entry)

[4] = biological target: T4, Orexin receptor type 2 (Homo sapiens) (UniProt O43614); assay: as §2
T4 sequence (whole entry): T2 sequence (O43614 whole entry)

[5] = biological target: T1, Orexin/Hypocretin receptor type 1; assay: Antagonist activity at human orexin receptor 1 expressed in CHO cells assessed as inhibition of orexin-A-induced calcium flux by FLIPR assay; type: functional, cell-based
Orexin receptor type 2 [6] = biological target: T2, Orexin receptor type 2; assay: Antagonist activity at human orexin receptor 2 expressed in CHO cells assessed as inhibition of orexin-A-induced calcium flux by FLIPR assay; type: functional, cell-based
[7] = biological target: T5, 5-hydroxytryptamine receptor 2C (Homo sapiens, UniProt P28335); assay: Binding affinity to 5HT2C receptor (unknown origin)
T5 sequence (P28335 whole entry): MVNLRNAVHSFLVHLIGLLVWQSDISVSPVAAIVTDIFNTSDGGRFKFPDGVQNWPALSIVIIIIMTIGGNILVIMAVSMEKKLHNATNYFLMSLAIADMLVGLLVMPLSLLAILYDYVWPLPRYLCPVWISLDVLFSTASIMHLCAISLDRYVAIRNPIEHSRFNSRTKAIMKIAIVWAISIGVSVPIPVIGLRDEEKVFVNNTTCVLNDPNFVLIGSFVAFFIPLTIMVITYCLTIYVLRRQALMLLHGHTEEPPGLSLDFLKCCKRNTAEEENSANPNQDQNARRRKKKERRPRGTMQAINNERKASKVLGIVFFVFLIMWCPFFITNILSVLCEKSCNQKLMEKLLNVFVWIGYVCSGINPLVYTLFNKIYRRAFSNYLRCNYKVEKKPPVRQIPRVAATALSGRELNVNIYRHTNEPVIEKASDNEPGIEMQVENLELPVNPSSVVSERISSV

Adenosine receptor A2a = Adenosine receptor A2a (Homo sapiens, UniProt P29274); assay: Binding affinity to adenosine A2A receptor (unknown origin)
D(1A) dopamine receptor = D(1A) dopamine receptor (Homo sapiens, UniProt P21728); assay: Binding affinity to dopamine D1 receptor (unknown origin)
[8] = biological target: 5-hydroxytryptamine receptor 2B (Homo sapiens, UniProt P41595); assay: Binding affinity to 5HT2B receptor (unknown origin)
[9] = biological target: Kappa-type opioid receptor (Homo sapiens, UniProt P41145); assay: Binding affinity to kappa opioid receptor (unknown origin)
Chain of Kappa-type opioid receptor (P41145 whole entry): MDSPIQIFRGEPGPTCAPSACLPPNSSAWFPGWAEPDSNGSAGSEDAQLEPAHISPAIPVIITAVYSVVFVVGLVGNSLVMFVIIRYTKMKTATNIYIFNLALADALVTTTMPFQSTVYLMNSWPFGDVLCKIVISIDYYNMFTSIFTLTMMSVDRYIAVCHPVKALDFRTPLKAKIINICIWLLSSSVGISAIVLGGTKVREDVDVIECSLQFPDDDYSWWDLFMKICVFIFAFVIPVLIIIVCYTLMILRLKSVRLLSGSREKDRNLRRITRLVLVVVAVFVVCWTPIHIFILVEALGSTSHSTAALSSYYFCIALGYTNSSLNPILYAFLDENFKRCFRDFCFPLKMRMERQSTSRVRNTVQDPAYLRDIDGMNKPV

Chain of D(1A) dopamine receptor (P21728 whole entry): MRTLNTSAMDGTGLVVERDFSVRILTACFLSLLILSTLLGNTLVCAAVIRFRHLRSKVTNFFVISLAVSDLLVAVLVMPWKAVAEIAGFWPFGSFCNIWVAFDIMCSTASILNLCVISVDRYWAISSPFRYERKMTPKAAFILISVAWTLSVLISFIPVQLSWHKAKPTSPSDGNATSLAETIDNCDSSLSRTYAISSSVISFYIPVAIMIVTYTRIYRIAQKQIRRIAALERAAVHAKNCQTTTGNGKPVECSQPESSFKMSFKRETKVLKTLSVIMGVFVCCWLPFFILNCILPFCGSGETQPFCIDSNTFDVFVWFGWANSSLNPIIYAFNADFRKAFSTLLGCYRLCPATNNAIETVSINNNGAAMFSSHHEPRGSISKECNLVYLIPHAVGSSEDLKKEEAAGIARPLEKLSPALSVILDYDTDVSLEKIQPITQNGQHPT
Chain of Adenosine receptor A2a (P29274 whole entry): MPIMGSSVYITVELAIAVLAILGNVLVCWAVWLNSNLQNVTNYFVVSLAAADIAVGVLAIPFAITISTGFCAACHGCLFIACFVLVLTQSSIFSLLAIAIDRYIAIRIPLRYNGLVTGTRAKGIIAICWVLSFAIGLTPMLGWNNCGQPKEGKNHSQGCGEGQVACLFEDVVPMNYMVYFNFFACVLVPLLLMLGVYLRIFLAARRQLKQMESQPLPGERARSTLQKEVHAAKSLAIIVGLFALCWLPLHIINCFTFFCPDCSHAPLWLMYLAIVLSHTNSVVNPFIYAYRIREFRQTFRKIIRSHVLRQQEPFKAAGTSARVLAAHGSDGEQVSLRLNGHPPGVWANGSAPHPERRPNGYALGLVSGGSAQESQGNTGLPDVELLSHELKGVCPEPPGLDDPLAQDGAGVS
Chain of 5-hydroxytryptamine receptor 2B (P41595 whole entry): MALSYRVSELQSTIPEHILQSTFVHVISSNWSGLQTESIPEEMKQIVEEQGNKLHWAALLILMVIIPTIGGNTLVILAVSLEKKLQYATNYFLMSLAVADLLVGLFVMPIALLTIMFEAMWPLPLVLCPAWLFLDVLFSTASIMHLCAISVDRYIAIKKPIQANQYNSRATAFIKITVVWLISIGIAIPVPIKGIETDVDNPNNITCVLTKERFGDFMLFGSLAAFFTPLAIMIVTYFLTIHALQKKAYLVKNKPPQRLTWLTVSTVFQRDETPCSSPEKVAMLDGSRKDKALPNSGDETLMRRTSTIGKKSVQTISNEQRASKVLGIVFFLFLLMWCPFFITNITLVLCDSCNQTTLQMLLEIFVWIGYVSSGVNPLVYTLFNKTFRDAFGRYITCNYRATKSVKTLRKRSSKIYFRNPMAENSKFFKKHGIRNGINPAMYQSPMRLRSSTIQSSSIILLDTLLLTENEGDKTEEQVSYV

Cc1nc(C(=O)N2CCCC[C@H]2CNC(=O)c2cccc3occc23)c(-c2ccc(F)cc2)s1 [SB-649868]
Ki [1]: 0.3 nM

Cc1ccc(-c2ncccn2)c(C(=O)N2C[C@H](COc3ccc(F)cn3)CC[C@H]2C)c1 [FILOREXANT]
Ki (Orexin receptor type 2 [2]): 0.3 nM

Cc1ccc(-c2ncccc2C)c(C(=O)N2C[C@@H]3C[C@@H]3C[C@H]2CNc2ncc(C(F)(F)F)cn2)n1
Kb [3]: 0.6 nM | Kb [4]: 16 nM

CN(Cc1ccccc1)C(=O)Cn1nc(S(=O)(=O)Cc2ccccc2)c2ccccc21
IC50 [5]: 998 nM | IC50 (Orexin receptor type 2 [6]): 14 nM

CN(Cc1ccc(F)cc1)C(=O)Cn1cc(S(=O)(=O)Cc2ccc(F)cc2)c2ccccc21
IC50 [5]: 4360 nM | IC50 (Orexin receptor type 2 [6]): 5 nM

CN(Cc1ccccc1)C(=O)Cn1cc(S(=O)(=O)Cc2ccccc2)c2ccccc21
IC50 [5]: 3460 nM | IC50 (Orexin receptor type 2 [6]): 35 nM

Cc1c(S(=O)(=O)Cc2ccccc2)c2ccccn2c1CC(=O)N(C)Cc1ccc(F)cc1
IC50 [5]: 2380 nM | IC50 (Orexin receptor type 2 [6]): 0.8 nM

[3H]c1cccc([3H])c1-c1nnc(C[C@@H]2CCCN2C(=O)c2nc(C)sc2-c2ccccc2F)o1
Ki [1]: 1.1 nM | Ki (Orexin receptor type 2 [2]): 129 nM

O=C(Cn1cc(S(=O)(=O)Cc2ccc(F)cc2)c2ccccc21)NCc1ccc(F)cc1
IC50 [5]: 9190 nM | IC50 (Orexin receptor type 2 [6]): 96 nM

Cc1c(S(=O)(=O)Cc2ccc(F)cc2)c2ccccn2c1CC(=O)N(C)Cc1ccc(F)cc1
Ki [1]: 4360 nM | Ki (Orexin receptor type 2 [2]): 5.7 nM

CNC(=O)[C@@H](c1ccccc1)N1CCc2cc(OC)c(OC)cc2[C@@H]1CCc1ccc(C(F)(F)F)cc1 [ALMOREXANT]
Ki (Orexin receptor type 2 [2]): 8 nM

Cc1c(S(=O)(=O)Cc2ccccc2)c2ccccn2c1CC(=O)N(C)Cc1ccccc1
IC50 [5]: 3780 nM | IC50 (Orexin receptor type 2 [6]): 1 nM

Cc1cccc(-c2sc(C)nc2C(=O)N2CCC2CNC(=O)c2cccc3c2OCCN3C)c1 (racemic)
IC50 [5]: 3100 nM | IC50 (Orexin receptor type 2 [6]): 13 nM

Cc1ccc(-n2nccn2)c(C(=O)N2CCC[C@@H](COc3nccc4ccccc34)[C@@H]2C)c1
Ki [1]: 0.5 nM

COc1ccc(C[C@H]2c3cc(OC)c(OC)cc3CCN2[C@@H](C(=O)NC(C)C)c2ccccc2)cc1OC
IC50 [1]: 6 nM

Cc1cc(C)nc(N2CC[C@@H]3CN(C(=O)c4cc(F)ccc4-n4nccn4)[C@H]3C2)n1
Ki [5]: 1400 nM | Ki (Orexin receptor type 2 [6]): 18 nM

CCOc1ccc(C)nc1C(=O)N1C[C@@H]2C[C@@H]2C[C@H]1CNc1ncc(C)cn1
Kb [3]: 0.8 nM | Kb [4]: 100 nM

CCN(CC)c1ccc(NC(=O)c2oc3ccccc3c2C)cc1
Ki [1]: 36 nM | Ki (Orexin receptor type 2 [2]): > 10000 nM

CCOc1ccc(C)nc1C(=O)N1C[C@@H]2C[C@@H]2C[C@H]1CNc1ncc(C(F)(F)F)cn1
Kb [3]: 0.3 nM

Cc1nc(C(=O)N2CC3(CC3)C[C@H]2CNc2ccc(Cl)cn2)c(-c2ccccc2)s1
Kb [3]: 5 nM | Kb [4]: 79.4 nM

Cc1nc2ccc(NC(=O)Nc3ccnc4cccnc34)cc2o1
Ki [7]: 1200 nM | Ki (Adenosine receptor A2a): 670 nM

Cc1nc(C(=O)N2CC3(CC3)C[C@H]2CNc2ncc(Cl)cn2)c(-c2ccccc2)s1
Kb [3]: 158 nM | Kb [4]: 158 nM

Cc1nc(C(=O)N2CCC[C@H]2Cc2nnc(-c3ccccc3)o2)c(-c2ccccc2F)s1
Ki [1]: 1.1 nM | Ki (Orexin receptor type 2 [2]): 129 nM

Cc1cc(NC(=O)Nc2ccc(N(C)C)cc2)c2cc(F)cc(F)c2n1
Ki (D(1A) dopamine receptor): 1780 nM | Ki [1]: 22 nM | Ki (Orexin receptor type 2 [2]): 1400 nM | Ki [8]: 320 nM

Cc1ccc(NC[C@@H]2C[C@H]3C[C@H]3CN2C(=O)c2nc(C)ccc2OCC2CC2)nc1
Kb [3]: 0.5 nM | Kb [4]: 4 nM

Cc1ccc(-n2nccn2)c(C(=O)N2CCC[C@@H](COc3ccccn3)[C@@H]2C)c1
Ki [1]: 1 nM

CCn1nc(C)cc1C(=O)NCC[C@H](Cc1ccccc1)N(C)C(=O)c1cc(C)ccc1-n1nccn1
Kd [1]: 3050 nM | Kd (Orexin receptor type 2 [2]): 7 nM

CCCOc1ccc(C)nc1C(=O)N1C[C@@H]2C[C@@H]2C[C@H]1CNc1cnc(C)c(C)n1
Kb [3]: 1 nM | Kb [4]: 1.3 nM

Cc1cc(C)nc(NC[C@@H]2CC3(CC3)CN2C(=O)c2nc(C)sc2-c2ccccc2)n1
Kb [3]: 31.6 nM | Kb [4]: 2.5 nM

CC1(C)OC[C@H](NC(=O)Nc2ccc(Br)cc2Br)[C@H](c2ccccc2)O1
Ki [1]: 1640 nM | Ki (Orexin receptor type 2 [2]): 6 nM

CCCOc1ccc(C)nc1C(=O)N1C[C@@H]2C[C@@H]2C[C@H]1CNc1ncc(C(F)(F)F)cn1
Kb [3]: 0.3 nM | Kb [4]: 63 nM

Cc1cccc(-c2sc(C)nc2C(=O)N2CCC2CNC(=O)c2c(N)nc3sccn23)c1 (racemic)
IC50 [5]: 10 nM | IC50 (Orexin receptor type 2 [6]): 5 nM

Cc1cnn(-c2ccc(C)nc2C(=O)N2C[C@@H]3C[C@@H]3C[C@H]2CNc2ncc(C(F)(F)F)cn2)c1
Kb [3]: 0.6 nM | Kb [4]: 0.4 nM

Cc1ccc(-n2nccn2)c(C(=O)N2C[C@H](COc3ncccc3C)OC[C@H]2C)c1
Ki [5]: 720 nM

CN(Cc1ccc(F)cc1)C(=O)Cc1nc(S(=O)(=O)Cc2ccccc2)c2ccccn12
IC50 [5]: > 10000 nM | IC50 (Orexin receptor type 2 [6]): 194 nM

CN(C)c1ccc(NC(=O)Nc2ccnc3c(F)ccc(F)c23)cc1
Ki [1]: 8.7 nM | Ki (Orexin receptor type 2 [2]): 503 nM

COc1c(F)cccc1C(=O)N1C[C@@H](C)CC[C@H]1CNc1ccc(Br)cn1 (racemic)
Kb [3]: 1.6 nM | Kb [4]: 126 nM | Ki [9]: 320 nM

Cc1ccc(-n2nccn2)c(C(=O)N2C[C@H](COc3nccc4ccccc34)OC[C@H]2C)c1
Ki [5]: 2.2 nM
